Experimental data reported in patent US20210330611A1, “THERAPY FOR NEUROLOGICAL DISEASES/DISORDERS” (priority 2020, published 2021).
Values joined by “and” are separate entries in the source; they are usually repeats but may differ in a detail not shown here. Identical values can stand only once. Like-named read-outs stand apart in the source and are kept apart here.

Assays:
[1] = tested on: fibrin-induced microglia activation; assay: Image-based assay of fibrin-induced microglia activation (HTS and dose response); format: cell-based, rat; details: for IC50 / inhibition at 10 µM: Rattus norvegicus, Microglia; for inhibition at 10 µM: primary microglia HTS, fibrin stimulation, increased cell size (>800 μm^2) as marker of activation, read-out: Fibrin % inhibition
primary rat microglia [2] = assay: Cell toxicity (dead cells, size <150 μm2) in coated fibrin (cFib) assay; details: primary microglia HTS, fibrin stimulation; decreased size (<150 μm^2) as marker of toxicity;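 on Fibrin % cell toxicity: share of dead cells sized under 150 µm2 at 10 µM in fibrin-stimulated microglia HTS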
in vitro [3] = details: rat, Cell Toxicity IC50 (uM) [cFib assay]
primary rat microglia [4] = assay: Cell toxicity (dead cells, size <150 μm2) in LPS assay; details: for LPS % cell toxicity: primary microglia HTS, LPS stimulation, decreased size (<150 μm^2) as marker of toxicity; for IC50: read-out: Cell Toxicity IC50 (uM) [LPS assay], LPS assay
[5] = tested on: LPS-induced microglia activation; assay: Image-based assay of LPS-induced microglia activation (HTS and dose response); format: cell-based, rat; details: Rattus norvegicus, Microglia; for inhibition at 10 µM: primary microglia HTS, LPS stimulation, increased cell size (>800 μm^2) as marker of activation, read-out: LPS % inhibition
[6] = tested on: fibrin- and LPS-induced microglia activation; assay: cells; format: cell-based, rat; details: for inhibition at 10 µM: Rattus norvegicus
in vitro [7] = details: rat
[8] = 48 h, Table 1, dose response 0.001-20 μM, triplicates, primary rat microglia, 48 h, read-out: Fibrin IC50
[9] = Table 3, read-out: Fibrin IC50 (uM) (Suppl. Table 7)
[10] = dose response, fibrin-induced microglia activation, read-out: Fibrin IC50
[11] = fibrin-induced microglia activation, dose response, read-out: Fibrin IC50 (uM) (Suppl. Table 7)
[12] = 48 h, Table 1, dose response 0.001-20 μM, triplicates, primary rat microglia, 48 h, read-out: LPS IC50
[13] = LPS-induced microglia activation, dose response, read-out: LPS IC50 (uM) (Suppl. Table 7)
[14] = Table 3, read-out: LPS IC50 (uM) (Suppl. Table 7)
[15] = dose response, LPS-induced microglia activation, read-out: LPS IC50
[16] = HTS of 1907 compounds, quadrant by fibrin and LPS inhibition
[17] = Microglia, Table 3, read-out: Cherry-picked Hit (Suppl. Table 7)
[18] = Microglia, HTS hit classification, read-out: Hit
[19] = quadrant by fibrin and LPS inhibition in HTS of 1907 compounds

Row | SMILES | Fibrin Selectivity [1] | IC50 [1, 8] | IC50 [1, 10] | IC50 [1, 11] | inhibition at 10 µM [1] | Fibrin % cell toxicity (primary rat microglia [2]) | IC50 (in vitro [3]; Table 3) | IC50 (in vitro [3]; cFib assay) | LPS % cell toxicity (primary rat microglia [4]) | IC50 (primary rat microglia [4]) | IC50 [5, 12] | inhibition at 10 µM ([5]; 48 h) | IC50 [5, 13] | IC50 [5, 14] | IC50 [5, 15] | Quadrant (FIG. 5b) [6, 16] | inhibition at 10 µM [6, 18] | Quadrant (FIG. 5b) ([6]; Table 1, screen at 10 μM) | Quadrant (FIG. 5b) [6, 19] | IC50 (in vitro [7]) | other results
1 | C[C@H](N)[C@H](O)c1ccc(O)c(O)c1 [Levonordefrin, reference compound] | 21 | 0.9 µM | 0.9 µM | 0.9 µM | 70% | 1% | > 20 µM | > 20 µM | 0% | > 20 µM | > 20 µM | 36% | > 20 µM | > 20 µM | > 20 µM | Q3 | > 50% | Q3 | Q3 | > 20 µM | Fibrin Selectivity (LOG10) [1]: 1.33; IC50 [1, 9]: 0.9 µM; inhibition at 10 µM [6, 17]: > 50%; Quadrant (FIG. 5b) ([6]; Table 3, screen at 10 μM): Q3
2 | C[C@]12C=CC(=O)C=C1CC[C@@H]1[C@@H]2C(=O)C[C@@]2(C)[C@H]1CC[C@]2(O)C(=O)CO [Prednisone, reference compound] | 6 |  |  |  | 66% | 1% and 2% | > 20 µM | > 20 µM | 1% and 0% | > 20 µM | > 20 µM | 45% | > 20 µM | > 20 µM | > 20 µM | Q3 | > 50% | Q3 | Q3 | > 20 µM | inhibition at 10 µM [6, 17]: > 50%; Quadrant (FIG. 5b) ([6]; Table 3, screen at 10 μM): Q3
3 | CC(=O)OCC(=O)[C@H]1CC[C@H]2[C@@H]3CCC4=CC(=O)CC[C@]4(C)[C@H]3CC[C@]12C [Desoxycorticosterone acetate, reference compound] | 10 | 0.5 µM | 0.5 µM | 0.5 µM | 83% | 1% | > 20 µM | > 20 µM | 1% | > 20 µM | 5 µM | 47% | 5 µM | 5 µM | 5 µM | Q3 | > 50% | Q3 | Q3 | > 20 µM | Fibrin Selectivity (LOG10) [1]: 0.98; IC50 [1, 9]: 0.5 µM; inhibition at 10 µM [6, 17]: > 50%; Quadrant (FIG. 5b) ([6]; Table 3, screen at 10 μM): Q3
4 | Cc1ccc(S(=O)(=O)NC(=O)NN2CCCCCC2)cc1 [Tolazamide, reference compound] | 2 | 12 µM | 12 µM | 12 µM | 88% | 1% | > 20 µM | > 20 µM | 0% | > 20 µM | > 20 µM | 42% | > 20 µM | > 20 µM | > 20 µM | Q3 | > 50% | Q3 | Q3 | > 20 µM | Fibrin Selectivity (LOG10) [1]: 0.23; IC50 [1, 9]: 12 µM; inhibition at 10 µM [6, 17]: > 50%; Quadrant (FIG. 5b) ([6]; Table 3, screen at 10 μM): Q3
5 | CN1CCN2c3ncccc3Cc3ccccc3C2C1 (stereo not drawn) [Mirtazapine, reference compound] |  | > 20 µM | > 20 µM | > 20 µM | 57% | 2% |  | > 20 µM | 1% |  | > 20 µM | 36% | > 20 µM |  | > 20 µM | Q3 | > 50% | Q3 | Q3 | > 20 µM | inhibition at 10 µM ([6]; hit classification in microglia HTS, read-out: Cherry-picked Hit (Suppl. Table 7)): > 50%
